Laboratory results from patent US4619925A, “3-Propenyl cephalosporin derivatives” (priority 1985, dated 1986).
Converted amounts (≈) assume the structure as drawn.

Key:
Assay type in all cases: cell-based
S. aureus A9534 = experiment: MIC, agar dilution technique (Mueller-Hinton Agar); details: Staphylococcus aureus, Gp-Ia, penicillin sensitive, read-out: Minimum Inhibitory Concentration
From the text: (§1) Each of these groups of organisms is constituted of five individual strains of microorganism. The Gp-Ia organisms are Gram-positive staphylococci which are sensitive to penicillin. The Gp-Ib organisms are Gram-positive staphylococci which are resistant to penicillin and produce penicillinase. The Gn-Ia organisms are Gram-negative bacteria which are sensitive to ampicillin and cephalothin. The Gn-Ib organisms are Gram-negative bacteria which are resistant to ampicillin and cephalothin.

P. mirabilis A9900 = experiment: MIC, agar dilution technique (Mueller-Hinton Agar); details: Proteus mirabilis, A9900, read-out: Minimum Inhibitory Concentration
From the text: as §1

P. mirabilis A9554 = experiment: MIC, agar dilution technique (Mueller-Hinton Agar); details: Proteus mirabilis, A9554, read-out: Minimum Inhibitory Concentration
From the text: as §1

E. coli Juhl = experiment: MIC, agar dilution technique (Mueller-Hinton Agar); details: Escherichia coli, read-out: Minimum Inhibitory Concentration
From the text: as §1

S. aureus Terajima = experiment: MIC, agar dilution technique (Mueller-Hinton Agar); details: Staphylococcus aureus, Gp-Ia, penicillin sensitive, read-out: Minimum Inhibitory Concentration
From the text: as §1

S. aureus BX-1633-2 = experiment: MIC, agar dilution technique (Mueller-Hinton Agar); details: Staphylococcus aureus, BX16332, read-out: Minimum Inhibitory Concentration
From the text: as §1

K. pneumoniae D11 = experiment: MIC, agar dilution technique (Mueller-Hinton Agar); details: Klebsiella pneumoniae, D11, read-out: Minimum Inhibitory Concentration
From the text: as §1

K. pneumoniae A20346 = experiment: MIC, agar dilution technique (Mueller-Hinton Agar); details: Klebsiella pneumoniae, A20346, read-out: Minimum Inhibitory Concentration
From the text: as §1

E. coli A9660 = experiment: MIC, agar dilution technique (Mueller-Hinton Agar); details: Escherichia coli, A9660, read-out: Minimum Inhibitory Concentration
From the text: as §1

S. aureus A15092 = experiment: MIC, agar dilution technique (Mueller-Hinton Agar); details: Staphylococcus aureus, Gp-Ib, penicillin resistant, read-out: Minimum Inhibitory Concentration
From the text: as §1

S. aureus A9602 = experiment: MIC, agar dilution technique (Mueller-Hinton Agar); details: Staphylococcus aureus; S. aureus A9602; Gp-Ib, penicillin resistant; read-out: Minimum Inhibitory Concentration
From the text: as §1

S. aureus A9601 = experiment: MIC, agar dilution technique (Mueller-Hinton Agar); details: Staphylococcus aureus, A9601, read-out: Minimum Inhibitory Concentration
From the text: as §1

S. aureus Smith = experiment: MIC, agar dilution technique (Mueller-Hinton Agar); details: Staphylococcus aureus, Gp-Ia, penicillin sensitive, read-out: Minimum Inhibitory Concentration
From the text: as §1

E coli RGN-823 = experiment: MIC, agar dilution technique (Mueller-Hinton Agar); details: Escherichia coli, RGN823, Gn-Ib, ampicillin and cephalothin resistant, read-out: Minimum Inhibitory Concentration
From the text: as §1

S. aureus A9497 = experiment: MIC, agar dilution technique (Mueller-Hinton Agar); details: Staphylococcus aureus, Gp-Ia, penicillin sensitive, read-out: Minimum Inhibitory Concentration
From the text: as §1

K. pneumoniae A20345 = experiment: MIC, agar dilution technique (Mueller-Hinton Agar); details: Klebsiella pneumoniae, Gn-Ib, ampicillin and cephalothin resistant, read-out: Minimum Inhibitory Concentration
From the text: as §1

S. aureus No. 193 = experiment: MIC, agar dilution technique (Mueller-Hinton Agar); details: Staphylococcus aureus, Gp-Ib, penicillin resistant, read-out: Minimum Inhibitory Concentration
From the text: as §1

E. coli A20341-1 = experiment: MIC, agar dilution technique (Mueller-Hinton Agar); details: Escherichia coli, A203411, read-out: Minimum Inhibitory Concentration
From the text: as §1

S. aureus Russell = experiment: MIC, agar dilution technique (Mueller-Hinton Agar); details: Staphylococcus aureus; S. aureus Russell; Gp-Ib, penicillin resistant; read-out: Minimum Inhibitory Concentration
From the text: as §1

E. coli A15148 = experiment: MIC, agar dilution technique (Mueller-Hinton Agar); details: Escherichia coli; E. coli A15148; Gn-Ib, ampicillin and cephalothin resistant; read-out: Minimum Inhibitory Concentration
From the text: as §1

N. meningitidis A21487 = experiment: In vitro activity against fastidious bacteria; details: Neisseria meningitidis, A21487
From the text: (§2) Table 5 contains comparative data for in vitro antibacterial activity against fastidious bacteria.

H. influenzae A22482 = experiment: In vitro activity against fastidious bacteria; details: Haemophilus influenzae; H. influenzae A22482; ampicillin-sensitive (ABPC-S); read-out: MIC
From the text: as §2

N. meningitidis A20048 = experiment: In vitro activity against fastidious bacteria; details: Neisseria meningitidis, A20048
From the text: as §2

H. influenzae A9729 = experiment: In vitro activity against fastidious bacteria; details: Haemophilus influenzae; H. influenzae A9729; ampicillin-sensitive (ABPC-S); read-out: MIC
From the text: as §2

N. meningitidis A21497 = experiment: In vitro activity against fastidious bacteria; details: Neisseria meningitidis, A21497
From the text: as §2

S. pyogenes A15040 = experiment: In vitro activity against fastidious bacteria; details: Streptococcus pyogenes, A15040
From the text: as §2

H. influenzae A22483 = experiment: In vitro activity against fastidious bacteria; details: Haemophilus influenzae; H. influenzae A22483; ampicillin-sensitive (ABPC-S); read-out: MIC
From the text: as §2

H. influenzae A22491 = experiment: In vitro activity against fastidious bacteria; details: Haemophilus influenzae, ampicillin-resistant (ABPC-R)
From the text: as §2

S. pyogenes Dick = experiment: In vitro activity against fastidious bacteria; details: Streptococcus pyogenes
From the text: as §2

H. influenzae A9833 = experiment: In vitro activity against fastidious bacteria; details: Haemophilus influenzae; H. influenzae A9833; ampicillin-sensitive (ABPC-S); read-out: MIC
From the text: as §2

S. pyogenes A9604 = experiment: In vitro activity against fastidious bacteria; details: Streptococcus pyogenes, A9604
From the text: as §2

S. pneumoniae Type I = experiment: In vitro activity against fastidious bacteria; details: Streptococcus pneumoniae
From the text: as §2

N. meningitidis A20049 = experiment: In vitro activity against fastidious bacteria; details: Neisseria meningitidis, A20049
From the text: as §2

S. pyogenes A20065 = experiment: In vitro activity against fastidious bacteria; details: Streptococcus pyogenes, A20065
From the text: as §2

S. pyogenes s-23 = experiment: In vitro activity against fastidious bacteria; details: Streptococcus pyogenes, S23
From the text: as §2

H. influenzae A22157 = experiment: In vitro activity against fastidious bacteria; details: Haemophilus influenzae, ampicillin-resistant (ABPC-R)
From the text: as §2

H. influenzae A22481 = experiment: In vitro activity against fastidious bacteria; details: Haemophilus influenzae, ampicillin-resistant (ABPC-R)
From the text: as §2

N. meningitidis A21495 = experiment: In vitro activity against fastidious bacteria; details: Neisseria meningitidis, A21495
From the text: as §2

S. pneumoniae Type III = experiment: In vitro activity against fastidious bacteria; details: Streptococcus pneumoniae
From the text: as §2

S. pneumoniae A15069 = experiment: In vitro activity against fastidious bacteria; details: Streptococcus pneumoniae, A15069
From the text: as §2

S. pyogenes A20201 = experiment: In vitro activity against fastidious bacteria; details: Streptococcus pyogenes, A20201
From the text: as §2

S. pneumoniae A20759 = experiment: In vitro activity against fastidious bacteria; details: Streptococcus pneumoniae, A20759
From the text: as §2

SMILES: CC1=C(C(=O)O)N2C(=O)[C@@H](NC(=O)[C@H](N)c3ccccc3)[C@H]2SC1 [cephalexin]
- MIC (S. aureus A9534): 1.6 µg/mL (≈ 4.61 µM)
- MIC (P. mirabilis A9900): 12.5 µg/mL (≈ 36 µM)
- MIC (P. mirabilis A9554): 12.5 µg/mL (≈ 36 µM)
- MIC (E. coli Juhl): 6.3 µg/mL (≈ 18.1 µM)
- MIC (S. aureus Terajima): 1.6 µg/mL (≈ 4.61 µM)
- MIC (S. aureus BX-1633-2): 6.3 µg/mL (≈ 18.1 µM)
- MIC (K. pneumoniae D11): 6.3 µg/mL (≈ 18.1 µM)
- MIC (K. pneumoniae A20346): 6.3 µg/mL (≈ 18.1 µM)
- MIC (E. coli A9660): 6.3 µg/mL (≈ 18.1 µM)
- MIC (S. aureus A15092): 6.3 µg/mL (≈ 18.1 µM)
- MIC (S. aureus A9602): 3.1 µg/mL (≈ 8.92 µM)
- MIC (S. aureus A9601): 1.6 µg/mL (≈ 4.61 µM)
- MIC (S. aureus Smith): 1.6 µg/mL (≈ 4.61 µM)
- MIC (E coli RGN-823): 12.5 µg/mL (≈ 36 µM)
- MIC (S. aureus A9497): 1.6 µg/mL (≈ 4.61 µM)
- MIC (K. pneumoniae A20345): 6.3 µg/mL (≈ 18.1 µM)
- MIC (S. aureus No. 193): 6.3 µg/mL (≈ 18.1 µM)
- MIC (E. coli A20341-1): 6.3 µg/mL (≈ 18.1 µM)
- MIC (S. aureus Russell): 3.1 µg/mL (≈ 8.92 µM)
- MIC (E. coli A15148): 100 µg/mL (≈ 288 µM)
- MIC (N. meningitidis A21487): 3.1 µg/mL (≈ 8.92 µM)
- MIC (H. influenzae A22482): 3.1 µg/mL (≈ 8.92 µM)
- MIC (N. meningitidis A20048): 3.1 µg/mL (≈ 8.92 µM)
- MIC (H. influenzae A9729): 3.1 µg/mL (≈ 8.92 µM)
- MIC (N. meningitidis A21497): 3.1 µg/mL (≈ 8.92 µM)
- MIC (S. pyogenes A15040): 0.8 µg/mL (≈ 2.3 µM)
- MIC (H. influenzae A22483): 3.1 µg/mL (≈ 8.92 µM)
- MIC (H. influenzae A22491): 3.1 µg/mL (≈ 8.92 µM)
- MIC (S. pyogenes Dick): 0.8 µg/mL (≈ 2.3 µM)
- MIC (H. influenzae A9833): 3.1 µg/mL (≈ 8.92 µM)
- MIC (S. pyogenes A9604): 0.8 µg/mL (≈ 2.3 µM)
- MIC (S. pneumoniae Type I): 3.1 µg/mL (≈ 8.92 µM)
- MIC (N. meningitidis A20049): 3.1 µg/mL (≈ 8.92 µM)
- MIC (S. pyogenes A20065): 0.8 µg/mL (≈ 2.3 µM)
- MIC (S. pyogenes s-23): 0.8 µg/mL (≈ 2.3 µM)
- MIC (H. influenzae A22157): 3.1 µg/mL (≈ 8.92 µM)
- MIC (H. influenzae A22481): 3.1 µg/mL (≈ 8.92 µM)
- MIC (N. meningitidis A21495): 3.1 µg/mL (≈ 8.92 µM)
- MIC (S. pneumoniae Type III): 3.1 µg/mL (≈ 8.92 µM)
- MIC (S. pneumoniae A15069): 3.1 µg/mL (≈ 8.92 µM)
- MIC (S. pyogenes A20201): 0.8 µg/mL (≈ 2.3 µM)
- MIC (S. pneumoniae A20759): 3.1 µg/mL (≈ 8.92 µM)
